Assay results as given in publication PMC9000871, “Rhodamine 101 Conjugates of Triterpenoic Amides Are of Comparable Cytotoxicity as Their Rhodamine B Analogs” (Molecules, 2022).
Counter-ions that a name gives are not always drawn.

Key:
[1] = test system: A375 (melanoma); assay: SRB cytotoxicity assay, A375; format: cell-based, human; conditions: mean ± standard mean error
Source text: (§1) The cell lines were obtained from Department of Oncology (Martin-Luther-University Halle Wittenberg; they were bought from ATCC; A 375 (CRL-1619), HT29 (HTB-38), MCF7 (HTM-22), A2780 (HTP-77), FaDu (HTP-43), NIH 3T3 (CRL-1658), HEK-293 (CRL-1573)). Cultures were maintained as monolayers in RPMI 1640 medium with L-glutamine (Capricorn Scientific GmbH, Ebsdorfergrund, Germany) supplemented with 10% heat inactivated fetal bovine serum (Sigma-Aldrich Chemie GmbH, Steinheim, Germany) and penicillin/streptomycin (1%, Capricorn Scientific GmbH, Ebsdorfergrund, Germany) at 37 °C in a humidified atmosphere with 5% CO2. The cytotoxicity of the compounds was evaluated using the sulforhodamine-B (Kiton-Red S, ABCR) micro culture colorimetric assay using confluent cells in 96-well plates with the seeding of the cells on day 0 applying appropriate cell densities to prevent confluence of the cells during the period of the experiment. On day 1, the cells were treated with six different concentrations (1, 3, 7, 12, 20, and 30 μM); thereby, the final concentration of DMSO was always <0.5%, generally regarded as non-toxic to the cells. On day 4, the supernatant medium was discarded; the cells were fixed with 10% trichloroacetic acid. After another day at 4 °C, the cells were washed in a strip washer and dyed with the SRB solution (100 μL, 0.4% in 1% acetic acid) for about 20 min to be followed by washing of the plates (four times, 1% acetic acid) and air-drying overnight. Furthermore, tris base solution (200 μL, 10 mM) was added to each well and absorbance was measured at λ = 570 nm employing a reader (96 wells, Tecan Spectra, Crailsheim, Germany). The EC50 values were averaged from three independent experiments performed each in triplicate calculated from semi logarithmic dose response curves applying a non-linear four-parameter Hills-slope equation (GraphPad Prism5; variables top and bottom were set to 100 and 0, respectively).

[2] = test system: MCF-7 (breast adenocarcinoma); assay: SRB cytotoxicity assay, MCF-7; format: cell-based; conditions: Homo sapiens, MCF7, 72 h of treatment, mean ± standard mean error
Source text: as §1

[3] = test system: FaDu (hypopharyngeal carcinoma); assay: SRB cytotoxicity assay, FaDu; format: cell-based; conditions: Homo sapiens, 72 h of treatment, mean ± standard mean error
Source text: as §1

[4] = test system: NIH 3T3 (fibroblasts), non-malignant; assay: SRB cytotoxicity assay, NIH 3T3; format: cell-based; conditions: Mus musculus, mean ± standard mean error
Source text: as §1

[5] = test system: A2780 (ovarian carcinoma); assay: SRB cytotoxicity assay, A2780; format: cell-based; conditions: Homo sapiens, 72 h of treatment, mean ± standard mean error
Source text: as §1

[6] = test system: HT29 (colon adenocarcinoma); assay: SRB cytotoxicity assay, HT29; format: cell-based, human; conditions: mean ± standard mean error
Source text: as §1

[7] = test system: HEK293 (human embryonic kidney), non-malignant; assay: SRB cytotoxicity assay, HEK293; format: cell-based; conditions: 72 h of treatment, mean ± standard mean error
Source text: as §1

[8] = test system: HeLa (cervical cancer); assay: SRB cytotoxicity assay, HeLa; format: cell-based; conditions: Homo sapiens, 72 h of treatment, mean ± standard mean error
[9] = Homo sapiens, A-375, 72 h, 72 h of treatment
[10] = NIH3T3, 72 h, 72 h of treatment
[11] = Homo sapiens, HT-29, 72 h, 72 h of treatment

Row | Structure (SMILES) | EC50 [1, 9] [µM] | EC50 [2] [µM] | EC50 [3] [µM] | EC50 [4, 10] [µM] | EC50 [5] [µM] | EC50 [6, 11] [µM] | melting point | further results
1 | C=C(C)[C@@H]1CC[C@]2(C(=O)O)CC[C@]3(C)[C@H](CC[C@@H]4[C@@]5(C)CC[C@H](OC(C)=O)C(C)(C)[C@@H]5CC[C@]43C)[C@@H]12 [compound 1, 3β-Acetyloxy-lup-20(29)-en-28-oic Acid] | 21.3 | 11 ± 0.5 | 7.2 ± 1.2 | > 30 | 18.3 ± 0.5 | 21.3 ± 2 | – | EC50 ([1]; 72 h of treatment): 19.2 ± 1.7 µM
2 | C=C(C)[C@@H]1CC[C@]2(C(=O)O)CC[C@]3(C)[C@H](CC[C@@H]4[C@@]5(C)CC[C@H](O)C(C)(C)[C@@H]5CC[C@]43C)[C@@H]12 [BA, betulinic acid, reference compound] | 17.7 ± 0.4 | 10.2 ± 1.2 | 13.7 ± 0.9 | 16.1 ± 1.4 | 8.8 ± 0.9 | 14.4 ± 2.3 | – | –
3 | CC(=O)O[C@H]1CC[C@@]2(C)C(CC[C@]3(C)C2CCC2C4[C@H](C(C)=O)CC[C@]4(C(=O)N4CCCNCC4)CC[C@]23C)C1(C)C (stereo partly drawn) [compound 12, 3β-Acetyloxy-28-(1-homopiperazinyl)-30-norlupane-20,28-dione] | 0.9 ± 0.1 | 1.8 ± 0.2 | – | 0.6 ± 0.1 | 1.6 ± 0.1 | 2.3 ± 0.2 | 162 to 165 °C | –
4 | CC(=O)O[C@H]1CC[C@@]2(C)C(CC[C@]3(C)C2CC=C2C4[C@@H](C)[C@H](C)CC[C@]4(C(=O)N4CCNCC4)CC[C@]23C)C1(C)C (stereo partly drawn) [compound 7, 3β-Acetyloxy-28-(1-piperazinyl)-urs-12-en-28-one] | 2 ± 0.4 | 1.7 ± 0.2 | – | 2.1 ± 0.1 | 2.1 ± 0.1 | 1.9 ± 0.3 | 187 to 190 °C | –
5 | COc1cccc2c1C(=O)c1c(O)c3c(c(O)c1C2=O)C[C@@](O)(C(=O)CO)C[C@@H]3O[C@H]1C[C@H](N)[C@H](O)[C@H](C)O1 [DX, doxorubicin, reference compound] | – | 1.1 ± 0.3 | 1.7 ± 0.3 | – | 0.02 ± 0.01 | 0.9 ± 0.2 | – | –
6 | CC(=O)[C@@H]1CC[C@]2(C(=O)O)CC[C@]3(C)[C@H](CC[C@@H]4[C@@]5(C)CC[C@H](O)C(C)(C)[C@@H]5CC[C@]43C)[C@@H]12 [PA, platanic acid, reference compound] | > 30 | > 30 | > 30 | > 30 | > 30 | > 30 | – | –
7 | CC(=O)O[C@H]1CC[C@@]2(C)C(CC[C@]3(C)C2CC=C2C4CC(C)(C)CC[C@]4(C(=O)N4CCNCC4)CC[C@]23C)C1(C)C (stereo partly drawn) [compound 6, 3β-Acetyloxy-28-(1-piperazinyl)-olean-12-en-28-one] | 1.4 ± 0.2 | 1.7 ± 0.2 | – | 1.7 ± 0.1 | 1.7 ± 0.1 | 1.3 ± 0.1 | 172 to 175 °C | –
8 | CC(=O)O[C@H]1CC[C@@]2(C)C(CC[C@]3(C)C2CCC2C4[C@H](C(C)=O)CC[C@]4(C(=O)N4CCNCC4)CC[C@]23C)C1(C)C (stereo partly drawn) [compound 8, 3β-Acetyloxy-28-(1-piperazinyl)-30-norlupane-20,28-dione] | 1.9 ± 0.4 | 2.7 ± 0.3 | – | 1.3 ± 0.1 | 2.6 ± 0.4 | 3.86 | 127 to 130 °C | EC50 ([6]; 72 h of treatment): 3.9 ± 0.2 µM
9 | CC(=O)O[C@H]1CC[C@@]2(C)C(CC[C@]3(C)C2CC=C2C4CC(C)(C)CC[C@]4(C(=O)N4CCCNCC4)CC[C@]23C)C1(C)C (stereo partly drawn) [compound 10, 3β-Acetyloxy-28-(1-homopiperazinyl)-olean-12-en-28-one] | 1.9 ± 0.9 | 1.6 ± 0.1 | – | 1.8 ± 0.2 | 2.2 ± 0.1 | 1.9 ± 0.1 | 182 to 185 °C | –
10 | CCN(CC)c1ccc2c(-c3ccccc3C(=O)N3CCN(C(=O)[C@]45CCC(C)(C)CC4C4=CCC6[C@@]7(C)CC[C@H](OC(C)=O)C(C)(C)C7CC[C@@]6(C)[C@]4(C)CC5)CC3)c3ccc(=[N+](CC)CC)cc-3oc2c1 (stereo partly drawn) (as salt: chloride) [compound 14, 9-[2-[[4-(3β-Acetyloxy-28-oxo-olean-12-en-28-yl)-1-piperazinyl]carbonyl]phenyl]-3,6-bis(diethylamino)-xanthylium chloride] | – | – | – | – | – | – | 246 to 252 °C | –
11 | CC(=O)O[C@H]1CC[C@@]2(C)C(CC[C@]3(C)C2CC=C2C4[C@@H](C)[C@H](C)CC[C@]4(C(=O)O)CC[C@]23C)C1(C)C (stereo partly drawn) [compound 3, 3β-Acetyloxy-urs-12-en-oic Acid] | 11.4 ± 1.4 | 12.1 ± 1.2 | 10.7 ± 0.8 | 16.4 ± 1.7 | 8.3 ± 0.9 | 17.3 ± 1.5 | – | –
12 | CC(=O)O[C@H]1CC[C@@]2(C)C(CC[C@]3(C)C2CCC2C4[C@H](C(C)=O)CC[C@]4(C(=O)N4CCCN(C(=O)c5ccccc5C5=c6cc7c8c(c6Oc6c5cc5c9c6CCCN9CCC5)CCC[N+]=8CCC7)CC4)CC[C@]23C)C1(C)C (some centres unmarked) [compound 28] | 0.2 ± 0.03 | 0.2 ± 0.05 | – | 0.39 ± 0.05 | 0.17 ± 0.04 | 0.35 ± 0.05 | – | EC50 [7]: 0.12 ± 0.03 µM; EC50 [8]: 0.31 ± 0.15 µM
13 | CC(=O)O[C@H]1CC[C@@]2(C)C(CC[C@]3(C)C2CC=C2C4[C@@H](C)[C@H](C)CC[C@]4(C(=O)N4CCCN(C(=O)c5ccccc5C5=c6cc7c8c(c6Oc6c5cc5c9c6CCCN9CCC5)CCC[N+]=8CCC7)CC4)CC[C@]23C)C1(C)C (some centres unmarked) (as salt: chloride) [compound 27] | – | – | – | – | – | – | > 300 °C | –
14 | CCN(CC)c1ccc2c(-c3ccccc3C(=O)N3CCCN(C(=O)[C@]45CC[C@@H](C)[C@H](C)C4C4=CCC6[C@@]7(C)CC[C@H](OC(C)=O)C(C)(C)C7CC[C@@]6(C)[C@]4(C)CC5)CC3)c3ccc(=[N+](CC)CC)cc-3oc2c1 (stereo partly drawn) (as salt: chloride) (hydrate or solvate) [compound 19, 9-[2-[[4-(3β-Acetyloxy-28-oxo-urs-12-en-28-yl]-1-homopiperazinyl]carbonyl]phenyl]-3,6-bis(diethylamino)-xanthylium chloride] | – | – | – | – | – | – | 238 to 246 °C | –
15 | CC(=O)O[C@H]1CC[C@@]2(C)C(CC[C@]3(C)C2CC=C2C4CC(C)(C)CC[C@]4(C(=O)O)CC[C@]23C)C1(C)C (stereo partly drawn) [compound 2, 3β-Acetyloxy-olean-12-en-oic Acid] | – | 12.9 ± 1.9 | 11.8 ± 0.9 | – | 9.4 ± 0.5 | – | – | EC50 ([1]; Homo sapiens, A-375, 72 h of treatment): 13 ± 1.1 µM; EC50 ([4]; NIH3T3, 72 h of treatment): 17.5 ± 1.5 µM; EC50 ([6]; Homo sapiens, HT-29, 72 h of treatment): 20.5 ± 1.7 µM
16 | C[C@H]1[C@H](C)CC[C@]2(C(=O)O)CC[C@]3(C)C(=CC[C@@H]4[C@@]5(C)CC[C@H](O)C(C)(C)[C@@H]5CC[C@]43C)[C@H]12 [UA, ursolic acid, reference compound] | 15.4 ± 1 | – | 18.2 ± 1.7 | – | – | – | – | –
17 | CC(=O)O[C@H]1CC[C@@]2(C)C(CC[C@]3(C)C2CC=C2C4[C@@H](C)[C@H](C)CC[C@]4(C(=O)N4CCCNCC4)CC[C@]23C)C1(C)C (stereo partly drawn) [compound 11, 3β-Acetyloxy28-(1-homopierazinyl)-urs-12-en-28-one] | 3.2 ± 0.2 | 2.4 ± 0.1 | – | 0.9 ± 0.1 | 2.9 ± 0.24 | 2 ± 0.1 | 171 to 175 °C | –
18 | CC(=O)O[C@H]1CC[C@@]2(C)C(CC[C@]3(C)C2CC=C2C4CC(C)(C)CC[C@]4(C(=O)N4CCCN(C(=O)c5ccccc5C5=c6cc7c8c(c6Oc6c5cc5c9c6CCCN9CCC5)CCC[N+]=8CCC7)CC4)CC[C@]23C)C1(C)C (some centres unmarked) (as salt: chloride) [compound 26] | – | – | – | – | – | – | > 300 °C | –
19 | CC1(C)CC[C@]2(C(=O)O)CC[C@]3(C)C(=CC[C@@H]4[C@@]5(C)CC[C@H](O)C(C)(C)[C@@H]5CC[C@]43C)[C@@H]2C1 [OA, oleanolic acid, reference compound] | > 30 | > 30 | > 30 | > 30 | > 30 | > 30 | – | –
20 | CCN(CC)c1ccc2c(-c3ccccc3C(=O)N3CCCN(C(=O)[C@]45CC[C@@H](C(C)=O)C4C4CCC6[C@@]7(C)CC[C@H](OC(C)=O)C(C)(C)C7CC[C@@]6(C)[C@]4(C)CC5)CC3)c3ccc(=[N+](CC)CC)cc-3oc2c1 (stereo partly drawn) (as salt: chloride) [compound 20, 9-[2-[[4-(3β-Acetyloxy-20,28-dioxo-30-norlupan-28-yl)-1-homopiperazinyl]carbonyl]phenyl]-3,6-bis(diethylamino)-xanthylium chloride] | – | – | – | – | – | – | 248 to 250 °C (dec.) | –
